In patent publication US6958141B2, “Rhenium and technetium complexes containing a hypoxia-localizing moiety” (Bracco International B.V., priority 1991, dated 2005):

How the values were obtained:
[1] = test system: Calcium-tolerant ventricular myocytes; experiment: Isolated cardiac myocyte studies, retention of radioactivity; type: cell-based, male Sprague Dawley rats; conditions: for Oil: dibutyl phthalate layer; for Oil / PCA Pellet / Cell Pellet: means ±S.E.M.; for PCA Pellet: perchloric acid-precipitated pellet; for Cell Pellet: whole cells passed through dibutyl phthalate; for percentage of activity associated with the protein/membrane fragments: cells disrupted by freezing and thawing (3×)
From the text: Calcium-tolerant ventricular myocytes were isolated from hearts of male Sprague Dawley rats (200 g) according to the procedure of Wittenberg and Robinson (B. A. Wittenberg and T. F. Robinson, Cell Tissue Res., 216: 231, 1981) with modifications described previously (W. Rumsey, C. Schlosser, E. M. Nuutinen, M. Robiolio and D. F. Wilson, J. Biol. Chem., 265 (26): 15392, 1990). Cells were used immediately following morphological analysis (using a hemocytometer) of viability and were maintained at 37° C. during the experiments. The number of quiescent, rod shaped cells ranged from 70-90% within a total population of 5-9×10^6 cells.
The isolated myocytes were maintained in either a normoxic, hypoxic or anoxic state. Hypoxia was induced by providing an atmosphere of argon atop of the cells and sealing the flask during the incubation period. Glucose oxidase plus catalase (5/5 mg) was added to argon treated cells to provide anoxia. Cells were suspended (6.5-7.5×10^4 cells/ml) in isolation media and aliquots were added to incubation vials maintained at 37° C.
After incubation with a test compound, myocytes were deproteinated with 1% ice-cold perchloric acid and centrifuged at 12,000 rpm for 30 sec. The supernatent was separated from the pellet and each counted using a LKB 1282 gamma counter. Alternatively, myocytes were separated from the suspending media by passing the cells through 99% dibutyl phthalate by centrifugation at 12,000 rpm for 30 sec. The three phases were separated and counted as described above. Results for the Tc-99m complex of the compound in Example 1 are given below:
Values represent means ±S.E.M. for the number of experiments noted in the parentheses. The values are the percent of total radioactivity represented by each case. PCA pellet=perchloric acid-precipitated pellet which represents the activity associated with proteins/membranes. Cell pellet=whole cells passed through a layer of dibutyl phthalate (oil).
Several Tc-99m complexes were examined in isolated myocytes using the protocol described above. The percentage of activity retained in the cell pellet was determined under anoxic and normoxic states.

[2] = test system: Isolated Perfused Rat Heart; experiment: Isolated perfused heart studies (Langendorff), retention of tracer; design: species or system male Sprague Dawley rats; conditions: radioactivity 40 minutes after end of 20 minute infusion divided by peak, n=4
Description: Hearts were excised from male Sprague Dawley rats (275-325 g) and were perfused retrogradely using the Langendorff method (O. Langendorff, Pfleugers Arch. ges. Physiol, 61, 291, […]) with modifications described previously (W. Rumsey, D. F. Wilson and M. Erecinska, Am. J. Physiol., 253 (Heart Circ. Physiol. 22): H1098, 1987) in the isolated state at 37° C. with Krebs-Henseleit buffer. The perfusate contained [in mM] NaCl, KCl [4.7], CaCl2 [1.8], Na2EDTA [0.5], KH2PO4 [1.2], MgSO4 [1.2], NaHCO3 [25], glucose, pyruvate [0.2], and insulin (12 IU/L) and was equilibrated with O2:CO2 (95:5) (global normoxia) or N2:CO2 (95:5) (global hypoxia). The hearts were paced continuously at 5 Hz. […]
For determination of oxygen consumption, a cannula was placed in the right ventricle via the pulmonary artery. A pump removed a small fraction of the coronary effluent at 1 mL/min., and its oxygen concentration was monitored continuously by an in-line Clark-type electrode. […] Coronary flow was measured by collecting the effluent from the right and left pulmonary arteries in a 10 mL graduated cylinder. Oxygen consumption was calculated from the product of the influent-effluent oxygen concentration difference and the coronary flow. During perfusion with hypoxic medium, only the effluent oxygen concentration was recorded. […]

[3] = test system: Bovine brain microvessel endothelial cells; experiment: Ability to cross endothelial monolayers (permeability index); type: in vitro ADME; conditions: permeability index from PSe, endothelial monolayer, compared with ^3H-water and ^14C-sucrose, first 10 minutes, 37° C.
Description: The model consists of a cultured monolayer of bovine brain endothelial cells, which form tight intercellular junctions. […] The rate of transit is compared with ^3H2O (a highly permeable tracer) and ^14C-sucrose (a non-permeable tracer).
Bovine brain microvessel endothelial cells were isolated using a modification of the Audus-Borchardt method (K. L. Audus et al., Ann. New York Acad. Sci., 1988; 9-18). […]
This system was placed into a 37° C., 5% CO2 incubator which contains an orbiting tissue culture plate shaker for agitation and 10 μL samples, from both inside (donor) and outside (acceptor) compartments, were taken simultaneously from a set of 4 Anocell inserts. These samples were counted first in a Gamma counter then, after 72 hours, in a scintillation counter with dual channel capabilities. The fraction of radioactivity transported from the donor to the acceptor wells at each time point over the first 10 minutes of the study was calculated. The average percent of radioactivity transported was plotted vs. time and the slope was estimated by linear regression analysis. […] The permeability index (Pi) is calculated using the PSe for each agent as follows: [formula]

Mitochondria = experiment: Studies in isolated mitochondria; design: species or system male Sprague Dawley rats; conditions: 37° C. for 60 minutes, means ±S.E.M.
Description: Mitochondria were prepared from hearts of male Sprague Dawley rats (200 g) using the isolation procedure of Fuller et al., (E. O. Fuller, D. I. Golderg, J. W. Starnes, M. Sacks, and M. J. Delavoria-Papadopoulos, Mol. Cell. Cardiol., 17:71, 1985). The heart was excised from anesthetized rats and trimmed free of the atria and great vessels. The ventricles were minced in ice-cold isolation medium (0.225 M mannitol, 75 mM sucrose, 1.0 mM EGTA and 10 mM MOPS, pH 7.4), briefly exposed to the proteolytic enzyme preparation, Nagase (Enzyme Development Corp., New York, N.Y.), and homogenized with a polytron. The mitochondria were separated from the remainder of the broken cells using density gradient centrifugation.
Three nitroimidazole compounds were incubated at 37° C. for 60 minutes in isolated mitochodria. Hypoxia and anoxia were induced as outlined in Example 12.
Values are given in percent of total radioactivity within an aliquot and represent means ±S.E.M. Compounds were tested using the same preparation of mitochondria.

[4] = Anoxia (Glucose Oxidase) (n = 4)
[5] = isolated myocytes, several Tc-99m complexes
[6] = separate study, number of experiments in parentheses

Substance: [^99mTc]Oxo[[3,3,9,9-tetramethyl-1-(2-nitro-1H-imidazo-1-yl)-4,8-diazaundecane-2,10-dione dioximato]-(3-)-N,N′,N″,N′″]technetium(V) [^99mTc complex from ligand in Ex. 1]
- Anoxia/normoxia [1]: 2.7
- Anoxia/normoxia ratio [1]: 2.3
- Hypoxia/normoxia [1]: 1.7
- Oil [1, 4]: 9.0 ± 2.6% of total radioactivity
- PCA Pellet [1, 4]: 55.5 ± 5.8% of total radioactivity
- Cell Pellet [1, 4]: 48.8 ± 4.2% of total radioactivity
- Oil ([1]; Hypoxia (Argon) (n = 4)): 20.1 ± 5.3% of total radioactivity
- PCA Pellet ([1]; Hypoxia (Argon) (n = 4)): 48.5 ± 3.4% of total radioactivity
- Cell Pellet ([1]; Hypoxia (Argon) (n = 4)): 36.9 ± 8.8% of total radioactivity
- Oil ([1]; Normoxia (n = 5)): 22.8 ± 2.2% of total radioactivity
- PCA Pellet ([1]; Normoxia (n = 5)): 40.5 ± 2.7% of total radioactivity
- Cell Pellet ([1]; Normoxia (n = 5)): 23.2 ± 3.7% of total radioactivity
- percentage of activity associated with the protein/membrane fragments ([1]; anoxic (glucose oxidase), n=3): 25.3±2.5%
- percentage of activity associated with the protein/membrane fragments ([1]; normoxic, n=3): 23.3±0.8%
- % in Cell Pellet, Anoxia [1, 5]: 53.0 ± 2.2%
- % in Cell Pellet, Normoxia [1, 5]: 24.1 ± 2.3%
- effect of FCCP (uncoupler) on retention ([1]; normoxic cells): had no effect on the retention
- effect of cyanide on retention ([1]; normoxic cells, n=3): had no effect on retention in normoxic cells
- uptake in isolated myocytes, Anoxia [1, 6]: 48 ± 6 (3)
- uptake in isolated myocytes, Hypoxia [1, 6]: 30 ± 7 (3)
- uptake in isolated myocytes, Normoxia [1, 6]: 18 ± 1 (3)
- % Retention of Tracer in the Isolated Perfused Rat Heart, Hypoxia ([2]; N2:CO2 (95:5)): 65.3 ± 3%
- % Retention of Tracer in the Isolated Perfused Rat Heart, Normoxia ([2]; O2:CO2 (95:5)): 33.5 ± 2.5%
- Pi [3]: 63.2
- percentage of radioactivity associated with the mitochondria, Hypoxia (Mitochondria): 39.2 ± 1.0% of total radioactivity within an aliquot
- percentage of radioactivity associated with the mitochondria, Normoxia (Mitochondria): 27.8 ± 1.2% of total radioactivity within an aliquot
- Hypoxia/normoxia (Mitochondria; radioactivity associated with mitochondria): 1.4 ± 0.1
